Data reported in US20240408071A1, “NOVEL COMBINATION OF SEROTONIN RECEPTOR (5-HTR2B) ANTAGONIST AND AN IMMUNOMODULATOR AND CHEMOTHERAPEUTIC DRUGS FOR INHIBITION OF CANCER” (NATIONAL CENTRE FOR CELL SCIENCE, priority 2021, published 2024).

How the values were obtained:
MC38 cells = assay: MTT cell viability assay; format: cell-based, mouse; settings: graded dose; reduced serum media; 48 hours of stimulation
Protocol: FIG. 6 depicts that 5-HTR2B signalling in colon cancer affects cell proliferation and viability: Colon cancer MC38 cells were treated with serotonin (100 μM), 5-HTR2B agonist (BW-723C86; 50 μM), or 5-HTR2B antagonist (SB-215505; 50 μM) for 48 hours, and cell cycle analysis was performed by propidium iodide staining using flow cytometry. MC38 cells were also treated with a graded dose of 5-HTR2B agonist (BW-723C86) or serotonin. MTT assay was performed to measure cell viability. (A) After treatment with 5-HTR2B agonist BW-723C86, serotonin, or 5-HTR2B antagonist SB-215505, the relative cell cycle analysis is shown. (B) Relative cell viability data of MC38 cells following treatment of graded doses of 5-HTR2B agonist BW-723C86 or serotonin are shown. The data shown are representative of one of the three independent experiments. (C) MC38 tumor sections from the control tumor and 5-HTR2B antagonist treated tumor were stained for CD31 and the number of CD31^+ micro-blood vessels/mm^2 of tissue sections was counted and plotted to observe angiogenesis. Error bar represents ±standard error of the mean (SEM).
MC38 cells were cultured at a density of 0.5×10^4 cells/well in 96 well plates (flat bottom) and were allowed to adhere for 24 hours. […] Then, MTT crystals were dissolved with DMSO, and the reading was taken at 590 nm in an ELISA reader (Thermofisher). […]

[1] = tested on: tumor-infiltrating immune cells in MC38 tumor; assay: Tumor-infiltrating immune cells in MC38 tumor (flow cytometry / immunohistochemistry); format: in vivo, C57BL/6 mice
Protocol: FIG. 7 depicts that antagonizing the 5-HTR2B in mice inhibits breast and colon tumor growth: (A) MC38 colon cancer cells were injected subcutaneously into the right flank of C57BL/6 mice. […] Tumor volumes were measured and plotted. (B) MC38 colon cancer cells were injected subcutaneously into the right flank of C57BL/6 mice. After seven days when tumors became palpable, one group was treated with 5-HTR7 antagonist SB-269970 (n=6 mice; 3 mg/kg/day) or left untreated (n=6 mice). Tumor volume was measured and plotted. (C) After seven days of the setting of tumor growth, one group was treated with a serotonin transporter blocker (SSRI) sertraline hydrochloride (n=6 mice; 15 mg/kg/week) or left untreated (n=6 mice). Tumor volume was measured and plotted. (D) C57BL/6 mice were given subcutaneously injected MC38 cells. After seven days of tumor growth, one group of mice was treated with different doses of 5-HTR2B antagonist SB-215505 (n=6). Tumor volume was measured and plotted. (E) C57BL/6 mice were given subcutaneously injected MC38 cells. After seven days of the tumor growth, one group of mice was treated with different doses of 5-HTR2B antagonist SB-215505 (n=6), one group treated with 5-HTR2B agonist BW-723C86 (n=6; 4 mg/kg/day). Tumor volume was measured and plotted. (F) MC38 cells were subcutaneously injected into C57BL/6 mice. After seven days when the tumor became palpable in mice, one group of mice was treated with FDA-approved 5-HTR2B antagonist cariprazine (Carispec; Sun pharma) via oral gavage (n=5 mice; dose 5 mg/kg body weight/day) or left untreated (n=5 mice). Tumor growth was measured and plotted. (G) Breast cancer cell lines (4T1-Luc cells) were injected into the mammary fatpad of BALB/c mice. After seven days of the tumor growth setting in mice, one group of mice was treated with 5-HTR2B antagonist SB-215505(n=5 mice) or left untreated (n=5 mice). Tumour volumes were measured and plotted. (H) Mice melanoma (B16F10 cells) were injected subcutaneously in the left flank of C57BL/6J mice. After seven days of the tumor growth setting in mice, one group of mice was treated with 5-HTR2B antagonist SB-215505(n=5 mice) or left untreated (n=5 mice). Tumour volumes were measured and plotted. (I) Statistical analysis of the flow cytometric data showing the differential expression of F4/80^+CD11B^+ macrophages within MC38 tumor following treatment with 5-HTR2B antagonist. (J) Statistical analysis of the flow cytometric data showing the differential expression of F4/80^+CD11B^+ iNOS^+ M1 macrophages within MC38 tumor following treatment 5-HTR2B antagonist. (K) Statistical analysis of the flow cytometric data showing the differential expression of F4/80^+CD1B^+ Arg1^+ M2 macrophages within MC38 tumor following treatment with 5-HTR2B antagonist. (L) Immuno-Histochemistry data of MC38 tumor tissue from control and 5-HTR2B antagonist treated mice showing expression of F4/80 (cyan), iNOS (blue), arginase 1 (green), and CD11c (red). Images are taken in […] and inset images are acquired in 600× magnification and DAPI (blue) is used as counterstain. All the images in the panel were taken at 200× magnification. The image in the inset was taken in 600× magnification. All the statistical analysis was performed using Student's ‘t’ test or two-way ANOVA using Sidak's multiple comparison test. *P<0.05; **P<0.01; […]; ****P<0.0001 Error bar represents mean±standard error of means (SEM).
FIG. 9 depicts the effect of5-HTR antagonists on the CTL response MC38 tumor model in mice: (A) Clinical data correlation study. A TIDE computational method was used to study the association between the tumor-infiltrating CD8 T cells (also known as cytotoxic T lymphocytes, CTL) level and overall subject survival in relation to the intratumoral 5-HTR2B gene expression level. […]

[2] = day 24, compared to control and SB-215505 treated tumor (FIG. 14)

Row | SMILES | viability of MC38 cells (MC38 cells) | total CD11c+ DCs in the TME [1] | percentage of PD-L1+ CD11c+ DCs in the tumor [1, 2] | percentage of PD-L1+ arginase1+ M2 macrophages in the tumor [1, 2] | percentage of PD-L1+ total macrophages in the tumor [1, 2] | percentage of PD-L1+iNOS+ M1 macrophages in the tumor [1, 2] | percentage of total CD11b+Gr1+ MDSCs in the tumor [1, 2]
1 | CC(N)Cc1c[nH]c2ccc(OCc3cccs3)cc12 (stereo not shown) [BW-723C86] | enhanced the viability of MC38 cells | – | – | – | – | – | –
2 | CC(C)c1cc(-c2ccc(F)c3ccccc23)nc(N)n1 [RS-127445] | – | reducing the total CD11c^+ DCs | much reduced percentage | much reduced percentage | much reduced percentage | much reduced percentage | much reduced percentage
